The values below come from patent US8703704B2, “Method for growing, restoring and regenerating hair” (priority 2009, dated 2014).

Structures are written as SMILES. Entries after “also recorded” stand apart in the source; their conditions may differ.

Experiment [1] concerns cardiac muscle of a patient suffering from the dilated cardiomyopathy. As to the kind of experiment: Intermittent intravenous ANP in a patient with dilated cardiomyopathy. It is filed as in vivo, human. Here is the method: A small quantity of ANP was administered intermittently, namely once for a week by 1 mg over 4 hours by means of intravenous injection to a patient diagnosed as suffering from the dilated cardiomyopathy who was […]. The contraction percentage was 19% before start of administration of ANP, but was improved up to 40% in 6 months, and also the systemic arterial capacity, which was NYHA IV before start of the treatment, was improved up to NYHA II. […] By continuing administration of ANP once a week for two years, the […] was improved up to NYHA I, and although the patient's prognosis was regarded as 6 months by the conventional therapy, it is now determined that the patient will be able to enjoy the ordinary domestic life for 10 years or more. The patient's cardiac muscle thickness and contractile activity are at present quite good.

In experiment [2] the test system is wounds caused by the surgical operation (laser removal of lentigo). As to the kind of experiment: ANP applied to facial wounds caused by laser surgery (left half treated, right half as comparison). Format: in vivo, human. Here is the method: In a patient who received operation for removing lentigo on the entire facial surface by the laser method, ANP was administered at a dose of 0.1 to 5 μg (with an isotonic aqueous solution at a dose of 0.01 ml to 0.5 ml) twice a day to wounds caused by the surgical operation or areas around the wounds on the left half of the patient's face, and the result was compared to wounds on the right side half of the patient's face. […] Furthermore, tension of skin was observed more clearly in the left side facial area as a whole as compared to that in the right side, and smoothness of the facial skin in the left side was improved.

For experiment [3], the system named is head hairs of patients of thin hairs. As to the kind of experiment: ANP applied on head skin of patients of thin hairs. Format: in vivo, human. The protocol:
ANP was applied by 0.5 to 5 μg to two patients of thin hairs […], after the hairs were cleaned, twice a day (together with 0.5 ml of an isotonic aqueous solution) directly on the patients' head skin. States of pores and hairs and total state of head hairs after administration of ANP were observed and compared to those before start of administration of ANP. Observation of the states was also performed in 40 days and in 60 days after start of ANP administration for assessment. […] In 2 to 3 weeks after start of administration of ANP, it was observed that elasticity and solidity increased in total hairs on the patients' heads. In one month after start of ANP administration, the sites on each patient's head where the head skin had been visible became less visible. The retarded front line of head hairs again moved frontward, and new hairs grew up to the length of 5 to 7 mm. Furthermore, a second short hair was discovered at the side of a long grown hair. […] Black spiral hairs were observed under the pore portions. Just after the spiral hairs came out from under the head skin, the hairs kept the spiral state, but when the hairs become straight, the length was in the range from 3 to 4 mm.

Experiment [4] has as its system skin of hands (cracked and rough). As to the kind of experiment: ANP applied on hands with cracked and rough skin. Format: in vivo, human. To be noted: 0.5 to 5 μg twice a day on backs and palms of both hands. The protocol:
The ANP according to the present invention was applied on both the backs and palms of both hands of a ceramic artist who touched water and mud every day at a dose of 0.5 to 5 μg twice a day.

The test system of the next experiment is KRT15. As to the kind of experiment: RT-PCR expression of KRT15 in HaCat. It is filed as cell-based, human. The conditions noted are these: 1 μM; 30 minutes after start of treatment; transitional. Here is the method:
(§1) Human normal cornified cell stock HaCat was seeded in a 3.5 cm falcon flat bottom […] dish at the seeding rate of 2×10^4 cells/dish. In 3 days, ANP was added by 1 μM, and RNA was recovered using RNeasy plus (QUIAGEN) from the cells at the time points of 0 minute, 30 minutes, and 4 hours after start of the treatment. cDNA was synthesized using Superscript III (Invitrogen) from 0.2 μg of RNA, and the synthesized cDNA was used as a template for PCR. Using GAPDH as an internal control, the sample was subjected to PCR and then agarose electrophoresis, then stained by Cyber Safe (Invitrogen), the electrophoresis image was photographed on a UV transilluminator with a digital camera (Olympus C5060WZ), and thickness of each band was measured with the Image J (for densitometer analysis). […] Expression of BMP-2 increased by 1.5 times as compared to samples not treated in 4 hours after treatment with ANP.

In a further experiment the test system is Cyclin D1. Put plainly: RT-PCR expression of Cyclin D1 in HaCat. Format: cell-based, human. The conditions noted are these: 1 μM. The protocol: as §1
In experiment [5] the test system is Human normal cornified cell stock HaCat. Put plainly: Wound (scratch) test on confluent HaCat. It is filed as cell-based. The protocol: Human normal cornified cell stock HaCat was seeded in a falcon flat bottom 6-well dish at the seeding rate of 2×10^5 cells/dish. In 3 days, the cells in the confluent state were injured with a pipetteman chip, and the cells were washed with PBS twice, and then ANP was added so that the content was 1 μM (in OptiMEM serum free). In 24 hours, behaviors of the cells were observed (FIG. 4).

The test system is the same in experiment [6]. Put plainly: Colony formation of HaCat in drops. To be noted: 1 μM ANP. Format: cell-based. Here is the method:
In the case of 10 μl drop, formation of any colony was not observed.

For the molecule `CC[C@H](C)[C@@H]1NC(=O)[C@H](CCCNC(=N)N)NC(=O)[C@H](CC(=O)O)NC(=O)[C@H](CCSC)NC(=O)[C@H](CCCNC(=N)N)NC(=O)CNC(=O)CNC(=O)[C@H](Cc2ccccc2)NC(=O)[C@@H](NC(=O)[C@H](CO)NC(=O)[C@H](CO)NC(=O)[C@H](CCCNC(=N)N)NC(=O)[C@H](CCCNC(=N)N)NC(=O)[C@H](CC(C)C)NC(=O)[C@@H](N)CO)CSSC[C@@H](C(=O)N[C@@H](CC(N)=O)C(=O)N[C@@H](CO)C(=O)N[C@@H](Cc2ccccc2)C(=O)N[C@@H](CCCNC(=N)N)C(=O)N[C@@H](Cc2ccc(O)cc2)C(=O)O)NC(=O)CNC(=O)[C@H](CC(C)C)NC(=O)CNC(=O)[C@H](CO)NC(=O)[C@H](CCC(N)=O)NC(=O)[C@H](C)NC(=O)CNC1=O` [ANP, atrial natriuretic peptide], in experiment [1] (1 mg i.v. over 4 hours once a week, in 6 months, 19% before start), the contraction percentage came out at 40%. Besides, the “NYHA class after continued administration” value in experiment [1] (ANP once a week for two years) is “NYHA I”. Also, the “cardiac muscle thickness (ultrasonic diagnosis)” value in experiment [1] (during ANP treatment) was “increased”. Moreover, the NYHA functional class entry in experiment [1] (in 6 months, NYHA IV before start of the treatment) is given as “NYHA II”. The “time the patient will be able to enjoy ordinary domestic life (prognosis)” value in experiment [1] (prognosis was 6 months by the conventional therapy) is recorded as at least 10 years. In addition, the closure of wounds result in experiment [2] (0.1 to 5 μg twice a day, one week after start, versus untreated right side) was “most of the wounds were closed”. For the same molecule, in experiment [2] (ANP area compared to control area / no ANP), the restoration of wounds entry was “advances far quickly; also recorded: more quickly restored”. Also, in experiment [2] (left (treated) side), the “smoothness of the facial skin” value is “improved”. In addition, the surgical traces result in experiment [2] (sites where ANP was administered) is given as “less remarkable”. Moreover, the “reformation of subcutaneous tissue” value in experiment [2] (treated left half versus untreated right half of face) was “clearly earlier”. In addition, the “growth of downy hairs on the frontal region” value in experiment [3] (0.5 to 5 μg twice a day, one week after start) is “growth of hairs like downy hairs was observed”. In addition, in experiment [3] (2 to 3 weeks after start), the “elasticity and solidity of total hairs” value is recorded as “increased”. Besides, the “thickness of head hairs” value in experiment [3] (40 days after start) is “thickness increased”. Further, in experiment [3] (60 days after start), the “visibility of head skin” value is recorded as “hardly visible”. In addition, in experiment [4], the “cracked and rough skin symptoms” value is “remarkably improved”. In addition, the “increase of expression rate of KRT15” value in the experiment with KRT15 is “about 20%”. Also, the “expression rate of Cyclin D1 relative to the original level” value in the experiment with Cyclin D1 is “⅓ and around ⅓”. The cell motility entry in experiment [5] (1 μM) is “rose”. For the same molecule, the “behaviour of cells at wound edges” value in experiment [5] (1 μM in OptiMEM serum free, 24 hours) is “many rounding-like sites are observed; also recorded: rounding-like state was observed at many sites”. Further, the “capability of forming colonies” value in experiment [6] was “form colonies; also recorded: colonies formed”.
